Source: ChEMBL document CHEMBL1201862, “PubChem BioAssay data set” (2004)
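Cells were grown in 96-well plates and exposed to each compound for 48 hours at five concentrations; endpoints were interpolated linearly between bracketing concentrations, or set to the highest concentration if not reached. Here, GI50 denotes the concentration required for 50% inhibition of growth.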 The source made the active and inactive calls. No stated cut-off is given here; in the data, active = GI50 up to about 1.1 µM and inactive = higher.

Tests used:
Test in all cases: NCI-60 cell line screen, 48 h
SK-MEL-2 = test system: SK-MEL-2
Malme-3M = test system: Malme-3M
A549 = test system: A549
PC-3 = test system: PC-3
HCT-15 = test system: HCT-15
NCI-H522 = test system: NCI-H522
CAKI-1 = test system: CAKI-1
HOP-92 = test system: HOP-92
IGROV-1 = test system: IGROV-1
M14 = test system: M14
A498 = test system: A498
SK-MEL-5 = test system: SK-MEL-5
OVCAR-4 = test system: OVCAR-4
EKVX = test system: EKVX
OVCAR-3 = test system: OVCAR-3
RPMI-8226 = test system: RPMI-8226
MOLT-4 = test system: MOLT-4
MDA-N = test system: MDA-N
SK-MEL-28 = test system: SK-MEL-28
TK-10 = test system: TK-10
U-251 = test system: U-251
MDA-MB-435 = test system: MDA-MB-435
BT-549 = test system: BT-549
Hs-578T = test system: Hs-578T
MDA-MB-231 = test system: MDA-MB-231
HOP-62 = test system: HOP-62
UACC-257 = test system: UACC-257
OVCAR-5 = test system: OVCAR-5
HCC 2998 = test system: HCC 2998
786-0 = test system: 786-0
HT-29 = test system: HT-29
SK-OV-3 = test system: SK-OV-3
MCF7 = test system: MCF7
CCRF-CEM = test system: CCRF-CEM
UACC-62 = test system: UACC-62
SF-539 = test system: SF-539
RXF 393 = test system: RXF 393
LOX IMVI = test system: LOX IMVI
KM12 = test system: KM12
SR = test system: SR
SF-295 = test system: SF-295
NCI-H460 = test system: NCI-H460
NCI-H226 = test system: NCI-H226
SF-268 = test system: SF-268
NCI/ADR-RES = test system: NCI/ADR-RES
HCT-116 = test system: HCT-116
OVCAR-8 = test system: OVCAR-8
SW-620 = test system: SW-620
SN12C = test system: SN12C
K562 = test system: K562
T47D = test system: T47D
SNB-75 = test system: SNB-75
NCI-H23 = test system: NCI-H23
COLO 205 = test system: COLO 205
ACHN = test system: ACHN
UO-31 = test system: UO-31
DU-145 = test system: DU-145
SNB-19 = test system: SNB-19

## COC(=O)C(/C(=N/NC(N)=O)C(=O)Nc1ccc(C)cc1)c1nc2ccc([N+](=O)[O-])cc2nc1O (stereo not given)
SK-MEL-2
  GI50: > 100 µM (inactive)
Malme-3M
  GI50: > 100 µM (inactive)
A549
  GI50: > 100 µM (inactive)
PC-3
  GI50: > 100 µM (inactive)
HCT-15
  GI50: 37.6 µM
NCI-H522
  GI50: 27.2 µM (inactive)
CAKI-1
  GI50: > 100 µM (inactive)
HOP-92
  GI50: > 100 µM (inactive)
IGROV-1
  GI50: > 100 µM (inactive)
M14
  GI50: > 100 µM (inactive)
A498
  GI50: > 100 µM (inactive)
SK-MEL-5
  GI50: 57.9 µM (inactive)
OVCAR-4
  GI50: 50.2 µM (inactive)
EKVX
  GI50: 56.1 µM (inactive)
OVCAR-3
  GI50: > 100 µM (inactive)
RPMI-8226
  GI50: > 100 µM (inactive)
MOLT-4
  GI50: > 100 µM (inactive)
MDA-N
  GI50: > 100 µM (inactive)
SK-MEL-28
  GI50: > 100 µM (inactive)
TK-10
  GI50: > 100 µM (inactive)
U-251
  GI50: > 100 µM (inactive)
MDA-MB-435
  GI50: > 100 µM (inactive)
BT-549
  GI50: > 100 µM (inactive)
Hs-578T
  GI50: 67.3 µM (inactive)
MDA-MB-231
  GI50: > 100 µM (inactive)
HOP-62
  GI50: > 100 µM (inactive)
UACC-257
  GI50: > 10 µM (inactive)
OVCAR-5
  GI50: > 100 µM (inactive)
HCC 2998
  GI50: 70.1 µM (inactive)
786-0
  GI50: > 100 µM (inactive)
HT-29
  GI50: > 100 µM (inactive)
SK-OV-3
  GI50: > 100 µM (inactive)
MCF7
  GI50: > 100 µM (inactive)
CCRF-CEM
  GI50: > 10 µM (inactive)
UACC-62
  GI50: > 100 µM (inactive)
SF-539
  GI50: > 100 µM (inactive)
RXF 393
  GI50: > 100 µM (inactive)
LOX IMVI
  GI50: 69.3 µM (inactive)
KM12
  GI50: 74.3 µM (inactive)
SR
  GI50: > 100 µM (inactive)
SF-295
  GI50: > 100 µM (inactive)
NCI-H460
  GI50: 52.2 µM (inactive)
NCI-H226
  GI50: > 100 µM (inactive)
SF-268
  GI50: > 100 µM (inactive)
NCI/ADR-RES
  GI50: > 100 µM (inactive)
HCT-116
  GI50: > 100 µM (inactive)
OVCAR-8
  GI50: > 100 µM (inactive)
SW-620
  GI50: > 100 µM (inactive)
SN12C
  GI50: > 100 µM (inactive)
K562
  GI50: > 100 µM (inactive)
T47D
  GI50: > 100 µM (inactive)
SNB-75
  GI50: > 100 µM (inactive)

## NS(=O)(=O)c1nnc(NS(=O)(=O)c2ccc(Cl)cc2)s1
SK-MEL-2
  GI50: > 100 µM (inactive)
Malme-3M
  GI50: > 100 µM (inactive)
A549
  GI50: > 100 µM (inactive)
HCT-15
  GI50: > 100 µM
NCI-H23
  GI50: > 100 µM (inactive)
NCI-H522
  GI50: > 100 µM (inactive)
CAKI-1
  GI50: > 100 µM (inactive)
HOP-92
  GI50: > 100 µM (inactive)
M14
  GI50: > 100 µM (inactive)
A498
  GI50: > 100 µM (inactive)
SK-MEL-5
  GI50: > 100 µM (inactive)
OVCAR-4
  GI50: > 100 µM (inactive)
COLO 205
  GI50: > 100 µM (inactive)
EKVX
  GI50: > 100 µM (inactive)
OVCAR-3
  GI50: > 100 µM (inactive)
RPMI-8226
  GI50: > 100 µM (inactive)
MOLT-4
  GI50: > 100 µM (inactive)
MDA-N
  GI50: > 100 µM (inactive)
ACHN
  GI50: > 100 µM (inactive)
SK-MEL-28
  GI50: > 100 µM (inactive)
TK-10
  GI50: > 100 µM (inactive)
U-251
  GI50: > 100 µM (inactive)
MDA-MB-435
  GI50: > 100 µM (inactive)
BT-549
  GI50: > 100 µM (inactive)
Hs-578T
  GI50: > 100 µM (inactive)
MDA-MB-231
  GI50: > 100 µM (inactive)
HOP-62
  GI50: > 100 µM (inactive)
UACC-257
  GI50: > 100 µM (inactive)
OVCAR-5
  GI50: > 100 µM (inactive)
HCC 2998
  GI50: > 100 µM (inactive)
786-0
  GI50: > 100 µM (inactive)
HT-29
  GI50: > 100 µM (inactive)
SK-OV-3
  GI50: > 100 µM (inactive)
MCF7
  GI50: > 100 µM (inactive)
UACC-62
  GI50: > 100 µM (inactive)
RXF 393
  GI50: > 100 µM (inactive)
LOX IMVI
  GI50: > 100 µM (inactive)
UO-31
  GI50: > 100 µM (inactive)
KM12
  GI50: > 100 µM (inactive)
SR
  GI50: > 100 µM (inactive)
SF-295
  GI50: > 100 µM (inactive)
NCI-H460
  GI50: > 100 µM (inactive)
NCI-H226
  GI50: > 100 µM (inactive)
SF-268
  GI50: > 100 µM (inactive)
NCI/ADR-RES
  GI50: > 100 µM (inactive)
DU-145
  GI50: > 100 µM (inactive)
HCT-116
  GI50: > 100 µM (inactive)
OVCAR-8
  GI50: > 100 µM (inactive)
SW-620
  GI50: > 100 µM (inactive)
SN12C
  GI50: > 100 µM (inactive)
K562
  GI50: > 100 µM (inactive)
T47D
  GI50: > 100 µM (inactive)
SNB-19
  GI50: > 100 µM (inactive)
